The values below come from PubChem BioAssay AID1963837 (Molecular Pharmacology Branch, DTP, NCI, 2024).

SMILES strings stand for the structures.
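For viability, T/C in this document: spheroids exposed to drugs for seven days before readout.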

The subject of one assay is 843126-344-R-J1-PDC complex spheroid viability. Put plainly: Anticancer human tumor 843126-344-R-J1-PDC patient-derived melanoma cell line growth inhibition [POLQ]. Particulars: curve of first compound; second compound 10 µM. The procedure, abridged: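 Three-cell-type spheroids modelling solid tumor plus stroma served as the readout system; POL inhibitors were tested individually and in combination, concentration ranges set by clinical Cmax where known.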
Regarding `CC(C)n1c(=O)n(C)c2cnc3cc(F)c(-c4ccc(OCCCN5CCCCC5)nc4)cc3c21` + Nc1ccc(C#CCN(C(=O)Cc2ncc(C(F)(F)F)cc2C(F)(F)F)c2ccc(F)cc2)nn1, the IC50 (as a rule, the point on the concentration scale where inhibition reaches its midpoint) was greater than 10 µM.
Turning to `CC1COCCN1c1cc(-c2ccnn2C)c2ccnc(-c3ccn[nH]3)c2n1` (stereo unspecified) + Nc1ccc(C#CCN(C(=O)Cc2ncc(C(F)(F)F)cc2C(F)(F)F)c2ccc(F)cc2)nn1, the IC50 was 0.51 µM.
As to `CCc1cc2c(N3CCc4c(cc(Cn5ccnc5)cc4-c4cn(C)nc4C(F)(F)F)C3=O)ccnc2c(OC)n1` + Nc1ccc(C#CCN(C(=O)Cc2ncc(C(F)(F)F)cc2C(F)(F)F)c2ccc(F)cc2)nn1, the IC50 is greater than 10 µM.
With `COc1ccc([C@@H](O)c2cc(-c3ncnc4cc(N5CCOCC5)ccc34)c(F)cc2Cl)nn1` + Nc1ccc(C#CCN(C(=O)Cc2ncc(C(F)(F)F)cc2C(F)(F)F)c2ccc(F)cc2)nn1, the IC50 is greater than 10 µM.

The same assay, now with this note: second compound 0.0316 µM; first compound 0.0316 µM; stronger effect = lower value.
As for `C=CC(=O)N1CCN(c2nc(=O)n(-c3c(C)ccnc3C(C)C)c3nc(-c4c(O)cccc4F)c(F)cc23)C(C)C1` (stereo unspecified) + Nc1ccc(C#CCN(C(=O)Cc2ncc(C(F)(F)F)cc2C(F)(F)F)c2ccc(F)cc2)nn1, the viability, T/C – broadly, the result in the treated group divided by that in the control group, in per cent – is 105%.
In the case of `CC(C)n1c(=O)n(C)c2cnc3cc(F)c(-c4ccc(OCCCN5CCCCC5)nc4)cc3c21` + Nc1ccc(C#CCN(C(=O)Cc2ncc(C(F)(F)F)cc2C(F)(F)F)c2ccc(F)cc2)nn1, the viability, T/C was 91.9%.
On to `CC1COCCN1c1cc(-c2ccnn2C)c2ccnc(-c3ccn[nH]3)c2n1` (stereo unspecified) + Nc1ccc(C#CCN(C(=O)Cc2ncc(C(F)(F)F)cc2C(F)(F)F)c2ccc(F)cc2)nn1, for which the viability, T/C was 89.6%.
Same read-out and setting: for `CCc1cc2c(N3CCc4c(cc(Cn5ccnc5)cc4-c4cn(C)nc4C(F)(F)F)C3=O)ccnc2c(OC)n1` + Nc1ccc(C#CCN(C(=O)Cc2ncc(C(F)(F)F)cc2C(F)(F)F)c2ccc(F)cc2)nn1 the value was 91.6%.
Still for that read-out and setting: as for `COc1ccc([C@@H](O)c2cc(-c3ncnc4cc(N5CCOCC5)ccc34)c(F)cc2Cl)nn1` + Nc1ccc(C#CCN(C(=O)Cc2ncc(C(F)(F)F)cc2C(F)(F)F)c2ccc(F)cc2)nn1, the figure is 95.5%.

Staying with this assay, now noted: second compound 0.0316 µM; first compound 0.1 µM; stronger effect = lower value.
Turning to `C=CC(=O)N1CCN(c2nc(=O)n(-c3c(C)ccnc3C(C)C)c3nc(-c4c(O)cccc4F)c(F)cc23)C(C)C1` (stereo unspecified) + Nc1ccc(C#CCN(C(=O)Cc2ncc(C(F)(F)F)cc2C(F)(F)F)c2ccc(F)cc2)nn1, the viability, T/C was 82.8%.
Still for that read-out and setting: for `CC(C)n1c(=O)n(C)c2cnc3cc(F)c(-c4ccc(OCCCN5CCCCC5)nc4)cc3c21` + Nc1ccc(C#CCN(C(=O)Cc2ncc(C(F)(F)F)cc2C(F)(F)F)c2ccc(F)cc2)nn1 the value was 74%; for `CC1COCCN1c1cc(-c2ccnn2C)c2ccnc(-c3ccn[nH]3)c2n1` (stereo unspecified) + Nc1ccc(C#CCN(C(=O)Cc2ncc(C(F)(F)F)cc2C(F)(F)F)c2ccc(F)cc2)nn1, 76.3%; for `CCc1cc2c(N3CCc4c(cc(Cn5ccnc5)cc4-c4cn(C)nc4C(F)(F)F)C3=O)ccnc2c(OC)n1` + Nc1ccc(C#CCN(C(=O)Cc2ncc(C(F)(F)F)cc2C(F)(F)F)c2ccc(F)cc2)nn1, 90.2%.
On the same count and under the same terms, for `COc1ccc([C@@H](O)c2cc(-c3ncnc4cc(N5CCOCC5)ccc34)c(F)cc2Cl)nn1` + Nc1ccc(C#CCN(C(=O)Cc2ncc(C(F)(F)F)cc2C(F)(F)F)c2ccc(F)cc2)nn1 the value was 94.9%.

The same assay, now with this note: second compound 0.0316 µM; first compound 0.316 µM; stronger effect = lower value.
On to `C=CC(=O)N1CCN(c2nc(=O)n(-c3c(C)ccnc3C(C)C)c3nc(-c4c(O)cccc4F)c(F)cc23)C(C)C1` (stereo unspecified) + Nc1ccc(C#CCN(C(=O)Cc2ncc(C(F)(F)F)cc2C(F)(F)F)c2ccc(F)cc2)nn1, for which the viability, T/C was 97.3%.
On to `CC(C)n1c(=O)n(C)c2cnc3cc(F)c(-c4ccc(OCCCN5CCCCC5)nc4)cc3c21` + Nc1ccc(C#CCN(C(=O)Cc2ncc(C(F)(F)F)cc2C(F)(F)F)c2ccc(F)cc2)nn1, for which the viability, T/C was 86.2%.
Same read-out and setting: as for `CC1COCCN1c1cc(-c2ccnn2C)c2ccnc(-c3ccn[nH]3)c2n1` (stereo unspecified) + Nc1ccc(C#CCN(C(=O)Cc2ncc(C(F)(F)F)cc2C(F)(F)F)c2ccc(F)cc2)nn1, the figure is 65.3%; as for `CCc1cc2c(N3CCc4c(cc(Cn5ccnc5)cc4-c4cn(C)nc4C(F)(F)F)C3=O)ccnc2c(OC)n1` + Nc1ccc(C#CCN(C(=O)Cc2ncc(C(F)(F)F)cc2C(F)(F)F)c2ccc(F)cc2)nn1, 82%.
With `COc1ccc([C@@H](O)c2cc(-c3ncnc4cc(N5CCOCC5)ccc34)c(F)cc2Cl)nn1` + Nc1ccc(C#CCN(C(=O)Cc2ncc(C(F)(F)F)cc2C(F)(F)F)c2ccc(F)cc2)nn1, the viability, T/C was 87.5%.

The same assay, now with this note: second compound 0.0316 µM; first compound 1 µM; stronger effect = lower value.
Take `C=CC(=O)N1CCN(c2nc(=O)n(-c3c(C)ccnc3C(C)C)c3nc(-c4c(O)cccc4F)c(F)cc23)C(C)C1` (stereo unspecified) + Nc1ccc(C#CCN(C(=O)Cc2ncc(C(F)(F)F)cc2C(F)(F)F)c2ccc(F)cc2)nn1: the viability, T/C is 102%.
The same measure, in the same setting: for `CC(C)n1c(=O)n(C)c2cnc3cc(F)c(-c4ccc(OCCCN5CCCCC5)nc4)cc3c21` + Nc1ccc(C#CCN(C(=O)Cc2ncc(C(F)(F)F)cc2C(F)(F)F)c2ccc(F)cc2)nn1 the value was 92.6%.
Take `CC1COCCN1c1cc(-c2ccnn2C)c2ccnc(-c3ccn[nH]3)c2n1` (stereo unspecified) + Nc1ccc(C#CCN(C(=O)Cc2ncc(C(F)(F)F)cc2C(F)(F)F)c2ccc(F)cc2)nn1: the viability, T/C is 48.7%.
Still for that read-out and setting: for `CCc1cc2c(N3CCc4c(cc(Cn5ccnc5)cc4-c4cn(C)nc4C(F)(F)F)C3=O)ccnc2c(OC)n1` + Nc1ccc(C#CCN(C(=O)Cc2ncc(C(F)(F)F)cc2C(F)(F)F)c2ccc(F)cc2)nn1 the value was 86.8%; for `COc1ccc([C@@H](O)c2cc(-c3ncnc4cc(N5CCOCC5)ccc34)c(F)cc2Cl)nn1` + Nc1ccc(C#CCN(C(=O)Cc2ncc(C(F)(F)F)cc2C(F)(F)F)c2ccc(F)cc2)nn1, 87.9%.

Staying with this assay, now noted: second compound 0.0316 µM; first compound 3.16 µM; stronger effect = lower value.
Turning to `C=CC(=O)N1CCN(c2nc(=O)n(-c3c(C)ccnc3C(C)C)c3nc(-c4c(O)cccc4F)c(F)cc23)C(C)C1` (stereo unspecified) + Nc1ccc(C#CCN(C(=O)Cc2ncc(C(F)(F)F)cc2C(F)(F)F)c2ccc(F)cc2)nn1, the viability, T/C is 101%.
With `CC(C)n1c(=O)n(C)c2cnc3cc(F)c(-c4ccc(OCCCN5CCCCC5)nc4)cc3c21` + Nc1ccc(C#CCN(C(=O)Cc2ncc(C(F)(F)F)cc2C(F)(F)F)c2ccc(F)cc2)nn1, the viability, T/C was 81.5%.
